Data reported in patent US6921759B2, “Aza- and polyaza-naphthalenyl carboxamides useful as HIV integrase inhibitors” (Merck & Co., Inc., priority 2000, dated 2005).

Experiment: Oral bioavailability of jet-milled v. unmilled Na salt
Type: in vivo
Conditions: jet-milled crystals (mean particle size about 3 to 5 microns) compared with unmilled (about 20 to 25 microns); orally administered formulations
Text: The Na salt has been jet-milled to provide crystals with a mean particle size of about 3 to 5 microns (v. about 20 to 25 microns for unmilled material) for use in orally administered formulations.

For `O=C(NCc1ccc(F)cc1)c1nc(N2CCCCS2(=O)=O)c2cccnc2c1[O-].[Na+]` [Na salt, Sodium salt of 5-(1,1-Dioxido-1,2-thiazinan-2-yl)-N-(4-fluorobenzyl)-8-hydroxy-1,6-naphthyridine-7-carboxamide], the oral bioavailability was “improved oral bioavailability over the unmilled salt”.
